Measurements from patent publication US4813876A, “Method of treating living pulp tissue” (Dentsply Research & Development Corp., priority 1987, dated 1989).

Tested on: L929 mouse fibroblast cells
Experiment: Tissue culture MEM elution test (cytotoxicity)
Assay type: cell-based
Details: 25 mg
Protocol: One accepted method for determining the necessary biocompatibility of various compositions toward living tissue is an in vitro cell culture biocompatibility method wherein samples of the compositions to be tested are extracted in a bovine serum solution in a Minimum Essential Medium (MEM), whereafter the bovine serum solution and specified animal cells, such as human (WI-38), L929 mouse fibroblast cells or their equivalent, are incubated in a MEM for a predetermined period of time, and the incubated cells are visually observed and graded for cytotoxic manifestations. See, for example, R. E. Wilsnack, Quantitative Cell Culture Biocompatibility Testing of Medical Devices and Correlation To Animal Tests, Biomat, Med. Dev. Art. Org., 4(3& 4), 235-261 (1976). In connection with the present compositions, the in vitro cell culture method preferably is performed using L929 mouse fibroblast cells which have been cultured in a growth medium consisting of 5% bovine serum solution in MEM, wherein the bovine serum solution initially was used to extract a specified mass of cured or uncured material, as the case may be, and wherein the cells were incubated at 37°±2° C. for a specified period of time, e.g., 24, 48 or 72 hours. The degree of toxicity may be stated as a function of the percentage of the cells which have been lysed or fixed over the test period. […]

[Ca+2].[OH-].[OH-] [Calcium Hydroxide, calcium hydroxide]
Cytotoxic manifestation (footnote ***) (2 hours after extract placed on cells): All cells dead after 2 hours
24 hr results (% Lysed or fixed) (Table I, curing time 0 s, 24 hr): 100%
